Marks after values point to notes of the source that are not given here.
Assays:
[1] = test system: A2780/wt ovarian cancer cells; assay: MTT-based cell viability assay, A2780/wt, 72 h; parameters: species or system human; details: 72 h drug exposure, means of independent experiments
Source text: (§1) For the cell culture assays, the human ovarian model A2780/wt and its corresponding cisplatin-resistant subline A2780/cis (both purchased from Sigma and cultured in RPMI1640 medium), the human colorectal cancer model HCT116 (cultured in McCoy′s medium), and the murine (Balb/c) colorectal cancer model CT26 (cultured in DMEM/F-12 (1:1) medium) were used. The colon cancer models were purchased from the American Type Culture Collection (ATCC). The media were supplemented with 10% FCS (purchased from PAA Linz, Austria). To maintain drug resistance of A2780/cis, the subline was cultivated under continuous selection pressure (1 μM cisplatin). The selection drug was removed 1 week before the experiments were performed. Cell cultures were maintained at 37 °C in humidified atmosphere containing 5% CO2. All cultures were free of antibiotics and regularly checked for mycoplasma contamination. All cell culture media and reagents were purchased from Sigma-Aldrich Austria. All investigated drugs were dissolved in either water (oxaliplatin, carboplatin) or DMF before further dilution in cell culture medium. DMF concentrations were always below 0.5%.
(§2) Subsequently, the cells were incubated with the tested compounds in rising concentrations. […] The received data were visualized as dose–response curves by Graph Pad Prism 5 software (Graph Pad software, USA).

CT26 colon cancer cells [2] = assay: MTT-based cell viability assay, CT26, 72 h; parameters: species or system murine; details: 72 h drug exposure
Source text: as §1, §2

[3] = test system: HCT116 colon cancer cells; assay: Colony formation (clonogenic) assay, HCT116, 7 days; assay type: cell-based, human; details: 7 days drug exposure, clonogenic assay
Source text: as §1
(§3) Then, cells were exposed to the indicated drugs in rising concentrations. After 7 days, the cells were fixed with methanol for 20 min at 4 °C and stained with crystal violet 5 (0.01% in PBS). The fluorescence of the crystal violet was detected by the Typhoon scanner (Typhoon TRIO Variable Mode Imager, GE Healthcare Life Sciences) after excitation by the red laser (633 nm). Quantification was done with ImageJ software.

[4] = Stability of platinum(II) complexes in PBS or PB, NMR; assay type: physicochemical; details: 1 mM, pH 7.4, 37 °C, 8 h incubation, no GSH
Method: (§4) An 1 mM solution of Pt compound was incubated in a mixture of 90% PB or PBS (150 mM, pH 7.4) and 10% D2O at 37 °C with and without the addition of 10 equiv GSH. The reaction was monitored with ^1H or [^1H, ^15N] […] The reference spectrum was shifted with a value of −0.5 ppm compared to the original ppm value calibrated to D2O before overlay with a spectrum at a single time point. In case of ^15N-cisplatin, the cross-peak of the parental complex in [^1H, ^15N] HSQC at time point 0 h was used as reference, and spectral overlay was achieved by shifting the 2D spectra at all given time points (2, 4, 6, and 8 h) with vertical steps of +14 ppm compared to the original ^15N NMR ppm value of the parental complex.

[5] = test system: A2780/cis ovarian cancer cells; assay: MTT-based cell viability assay, A2780/cis (cisplatin-resistant), 72 h; parameters: species or system human; details: for IC50: 72 h drug exposure, cisplatin-resistant subline, means of independent experiments; for IC50 / IC50 in A2780/cis compared to A2780/wt: MTT-based assay; for IC50 in A2780/cis compared to A2780/wt / RF (resistance factor): 72 h; for RF (resistance factor): fold-change between IC50 values of A2780/cis:A2780/wt
Source text: as §1, §2

[6] = Interaction of platinum(II) complexes with 10 equiv GSH, NMR; assay type: physicochemical; details: 1 mM complex, 10% D2O/90% PBS pH 7.4, 37 °C
Method: The amount of remaining platinum(II) complex was monitored via ^1H NMR spectroscopy and, particularly for ^15N-cisplatin, via [^1H, ^15N] heteronuclear single quantum coherence (HSQC) NMR spectroscopy (Figure 1).[47]
as §4

[7] = test system: HCT116 colon cancer cells; assay: MTT-based cell viability assay, HCT116, 72 h; parameters: species or system human; details: 72 h drug exposure
Source text: as §1, §2

CT26 colon cancer cells [8] = assay: Colony formation (clonogenic) assay, CT26, 7 days; assay type: cell-based, murine; details: 7 days drug exposure
Source text: as §1, §3

CT26 tumors = assay: Anticancer activity in vivo, CT26-bearing Balb/c mice; details: i.v. on days 3 and 10, dose equimolar to 20 mg/kg picoplatin
Method: Ten-week-old Balb/c mice were purchased from Envigo Laboratories (San Pietro al Natisone, Italy). […] Animals were controlled for distress development every day, and tumor size was assessed regularly by caliper measurement. Tumor volume was calculated using the formula: (length × width^2)/2.
CT26 cells (5 × 10^5 in serum-free medium) were injected subcutaneously into the right flank of male Balb/c mice. Therapy was started when tumor nodules were palpable (day 3). […] Mice were sacrificed by cervical dislocation in the case of a tumor length >20 mm, tumor ulceration, or other signs for distress.

[9] = Reduction kinetics of platinum(IV)-succinimide complexes with AA, UHPLC; assay type: physicochemical; details: 1 mM, 10 equiv AA, 150 mM PB pH 7.4, 20 °C, 6 h
Method: Platinum(IV) prodrugs need to be reduced in the tumor environment to release the cytotoxic platinum(II) complexes. Thus, the reduction properties of Pico-Succ, PicoCarbo-Succ, and PicoOxali-Succ were investigated. As mentioned above, succinimide complexes were used for these studies to avoid competitive hydrolysis of the maleimide moiety. All platinum(IV)-succinimide complexes were incubated in both the absence and presence of a 10-fold excess L-ascorbic acid (AA) in PB at pH 7.4 and 20 °C over 6 h. The amount of remaining intact platinum(IV) complex at given time points was measured via ultrahigh performance liquid chromatography (UHPLC), as shown in Figure 2. Pico-Succ was reduced extremely fast, with only traces of the original complex left in the first measurement after ∼5 min of incubation. Even with equimolar amounts of AA, 90% of Pico-Succ was already reduced after ∼5 min (Figure S6). This level of reductive instability is exceptionally high, even when compared to the “fast” reducing cisplatin(IV) prodrugs, which show a complete conversion after ∼10 h in the presence of 10 equiv AA.[41],[53]
(§5) PB (150 mM, pH 7.4) containing 1 mM Pt compound was incubated at 20 °C with and without the addition of 10 equiv L-ascorbic acid or reduced GSH. The reaction was monitored on a Thermo Scientific Dionex UltiMate 3000 UHPLC-system using a Waters Acquity UPLC BEH C18 1.7 μm, 3.0 × 50 mm column. Milli-Q water containing 0.1% formic acid and acetonitrile containing 0.1% formic acid were used as eluents. A gradient of 5–95% over 5 min was used with a flow of 0.6 mL/min. To evaluate the reaction process, we used the peak area of the parental complex.

[10] = Reduction of platinum(IV)-succinimide complexes with 10 equiv GSH, UHPLC; assay type: physicochemical; details: 1 mM, 150 mM PB pH 7.4, 20 °C, 6 h
Source text: It is well-known that platinum(IV) complexes derived from, e.g., oxaliplatin or carboplatin, bearing leaving groups other than chlorido ligands, have distinctly slower reduction rates compared to cisplatin(IV) analogs.[54] This can be explained by a bridging interaction between the chlorido ligands and the reducing agent, which facilitates electron transfer to the platinum center.[55] […] The reductive behavior was also investigated in the presence of 10 equiv GSH in coherence with the above investigated interactions of platinum(II) with GSH (Figure S8).
as §5

albumin = albumin (Bos taurus, UniProt P02769); assay: Albumin binding and stability in phosphate-buffered FCS, SEC-ICP-MS; details: 50 μM in FCS (150 mM PB, pH 7.4), 37 °C, over 25 h; 195Pt only in LMWF
Chain of albumin (P02769 25-607): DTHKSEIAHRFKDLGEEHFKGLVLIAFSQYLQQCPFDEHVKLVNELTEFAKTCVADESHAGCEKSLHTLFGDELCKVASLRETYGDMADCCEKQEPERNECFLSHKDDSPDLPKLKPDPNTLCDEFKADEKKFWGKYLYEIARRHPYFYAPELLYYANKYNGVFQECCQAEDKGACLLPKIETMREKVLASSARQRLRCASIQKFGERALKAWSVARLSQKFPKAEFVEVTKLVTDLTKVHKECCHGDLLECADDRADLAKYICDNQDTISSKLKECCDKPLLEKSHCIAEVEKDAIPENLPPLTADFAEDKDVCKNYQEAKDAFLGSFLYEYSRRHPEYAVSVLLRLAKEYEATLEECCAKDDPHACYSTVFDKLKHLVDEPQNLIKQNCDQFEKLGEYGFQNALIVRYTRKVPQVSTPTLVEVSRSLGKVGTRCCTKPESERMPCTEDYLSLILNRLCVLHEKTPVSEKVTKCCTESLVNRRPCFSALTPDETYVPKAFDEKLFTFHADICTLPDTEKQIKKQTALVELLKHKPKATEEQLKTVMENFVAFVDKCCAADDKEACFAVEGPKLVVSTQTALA
Method: FCS was purchased from Sigma-Aldrich and buffered with 150 mM phosphate pH 7.4 in order to guarantee a stable pH. The platinum(IV) complexes were dissolved in 150 mM PB (pH 7.4) at a concentration of 5 mM and diluted 1:100 in buffered serum to obtain a final concentration of 50 μM. […] Between each sample, a pure water blank was measured. […] Oxygen (purity 5.5, Messer Austria GmbH, Gumpoldskirchen, Austria) was used as the reaction gas.

horse heart CytC = target: T1, horse heart CytC (Equus caballus, UniProt P00004); assay: Reduction with cytochrome C and NADH, UHPLC; assay type: biochemical; details: 700 μM, 0.1 equiv CytC and 10 equiv NADH, 50 mM PB pH 6.0, 37 °C
T1 construct: 0.1 equiv horse heart CytC; from tissue; host or cells: horse heart
T1 sequence (P00004 whole entry): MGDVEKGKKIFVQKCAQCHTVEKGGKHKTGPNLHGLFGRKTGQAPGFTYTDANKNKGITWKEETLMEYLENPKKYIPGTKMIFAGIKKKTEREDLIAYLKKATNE
Source text: (§6) To explain the rather unusual in vivo findings, especially with respect to Pico-Mal, we hypothesized that inefficient reductive release of the platinum(II) core from albumin due to steric hindrance of the 2-picoline could provide a plausible explanation for the lack of antitumor activity despite a favorable pharmacokinetic profile. […] To gain insights into whether the molecular weight and thus steric demands of the reducing agent impact the reduction of picoplatin(IV) derivatives, Pico-Succ and the reference complex Cis-Succ were analyzed in the presence of cytochrome C (CytC; ∼12,000 g/mol) or AA (176 g/mol). Therefore, Pico-Succ and Cis-Succ (for synthesis and ^1H NMR characterization, see experimental part and Scheme S1) were coincubated at pH 6.0 with 0.1 equiv CytC[60] and 10 equiv reduced NADH or with 10 equiv AA at 37 °C over 4 h, and the reduction kinetics were compared relatively. The amount of remaining intact platinum(IV) complex at given time points was measured via UHPLC (Figure 6). […]
(§7) PB (50 mM, pH 6.0) containing 700 μM Pt compound was incubated at 37 °C with the addition of 0.1 equiv horse heart CytC and 10 equiv reduced NADH or with 10 equiv L-ascorbic acid. The reaction was monitored on a Thermo Scientific Dionex UltiMate 3000 UHPLC-system using a Waters Acquity UPLC BEH peptide C18 1.7 μm 2.1 × 100 mm column. […]

[11] = Reduction with 10 equiv AA at pH 6.0 and 37 °C, UHPLC; assay type: physicochemical; details: 700 μM, 50 mM PB pH 6.0, 37 °C, 4 h
Source text: as §6, §7

Row | Molecule | IC50 [1] | IC50 (CT26 colon cancer cells [2]) | IC50 [3] | complex left in 10% D2O/90% PBS [4] | IC50 [5] | IC50 [7] | IC50 (CT26 colon cancer cells [8]) | also measured
1 | Cc1ccccn1.N.O=C1[O][Pt][O]C(=O)C12CCC2 [PicoCarbo, (SP-4-4)[(Ammine)(cyclobutane-1,1-dicarboxylato)(2-methylpyridine)platinum(II)]] | > 100 µM | 74.5 µM | 90 µM | > 95% | > 100 µM | > 100 µM | 26.3 µM | intact platinum(II) complex left after 8 h with GSH ([6]; 8 h, 1H NMR): ~90%
2 | CC(=O)[O][Pt]1([O]C(=O)NCCN2C(=O)C=CC2=O)[O]C(=O)C2(CCC2)C(=O)[O]1.Cc1ccccn1.N [PicoCarbo-Mal, (OC-6-21)[Acetato(ammine)(cyclobutane-1,1-dicarboxylato)(1-(2-isocyanatoethyl)-1H-pyrrole-2,5-dione)(2-methylpyridine)platinum(IV)]] | – | – | – | – | – | – | – | impact on tumor growth (CT26 tumors): significantly inhibited tumor growth
3 | CC(=O)[O][Pt]1([O]C(=O)NCCN2C(=O)CCC2=O)[O]C(=O)C2(CCC2)C(=O)[O]1.Cc1ccccn1.N [PicoCarbo-Succ, (OC-6-21)[Acetato(ammine)(cyclobutane-1,1-dicarboxylato)(1-(2-isocyanatoethyl)pyrrolidine-2,5-dione)(2-methylpyridine)platinum(IV)]] | > 100 µM | > 100 µM | > 100 µM | – | > 100 µM | > 100 µM | > 100 µM | intact platinum(IV) complex left after 6 h with AA [9]: ~90%; reduction with 10 equiv GSH over 6 h [10]: no notable reduction
4 | CC(=O)[O][Pt]1([O]C(=O)NCCN2C(=O)CCC2=O)[O]C(=O)C(=O)[O]1.Cc1ccccn1.N [PicoOxali-Succ, (OC-6-21)[Acetato(ammine)(1-(2-isocyanatoethyl)pyrrolidine-2,5-dione)(2-methylpyridine)(oxalato)platinum(IV)]] | > 100 µM | > 100 µM | > 100 µM | – | > 100 µM | > 100 µM | > 100 µM | intact platinum(IV) complex left after 6 h with AA [9]: ~70%; albumin conjugation (albumin): no albumin conjugation; reduction with 10 equiv GSH over 6 h [10]: no notable reduction
5 | Cc1ccccn1.N.O=C1[O][Pt][O]C1=O [PicoOxali] | 33.4 µM | 33.7 µM | 15.8 µM | readily degraded | 46 µM | > 100 µM | 7.26 µM | complex left in 10% D2O/90% PB [4]: > 90%; IC50 in A2780/cis compared to A2780/wt [5]: 1.4 fold; RF (resistance factor) [5]: 1.4^ns
6 | [15NH3].[15NH3].[Cl][Pt][Cl] [^15N-cisplatin, cis-[PtCl2(^15NH3)2]] | – | – | – | > 95% | – | – | – | platinum(II) complex left after 2 h with GSH ([6]; 2 h, [1H,15N] HSQC NMR): ~20%; platinum(II) complex reacted with GSH after 4 h ([6]; 4 h): nearly complete reaction
7 | N.N.[Cl][Pt][Cl] [cisplatin, reference compound] | 1.54 µM | 2.17 µM | 0.82 µM | – | 7.81 µM | 3.15 µM | 0.46 µM | IC50 in A2780/cis compared to A2780/wt [5]: 5.1 fold; RF (resistance factor) [5]: 5.1****
8 | (OC-6-44)[Acetatodiamminedichlorido[2-(2,5-dioxopyrrolidin-1-yl)butyl)carbamato]platinum(IV)] [Cis-Succ, reference compound] | – | – | – | – | – | – | – | time to complete reduction with CytC (horse heart CytC): 4 h; reduction with AA after 4 h [11]: ~40%
